According to patent US12415819B2, “Cu- and Ni-catalyzed decarboxylative borylation reactions” (The Scripps Research Institute, priority 2017, dated 2025):
Values after ≈ are worked out from the molar mass of the structure shown.

How the values were obtained:
Test in all cases: Antibiotic susceptibility, broth microdilution
Type in all cases: cell-based
[1] = tested on: Enterococcus faecalis (Van B, ATCC 51299); settings: growth observed at 20 h, unit assumed
Protocol: (§1) Antibiotic susceptibilities were determined using the Clinical and Laboratory Standards Institute broth microdilution method (63). Briefly, antibiotics were prepared as 2-fold dilutions in 96-well plates containing cation-adjusted Mueller-Hinton broth (S. aureus strains) or brain-heart infusion broth (Enterococcus strains). Stock solutions of antibiotics were made in dimethyl sulfoxide (DMSO). […]

[2] = tested on: Enterococcus faecalis (VanA, BM4166); settings: growth observed at 20 h, unit assumed
Protocol: as §1

[3] = tested on: Enterococcus faecium (Van A, ATCC BAA-2317); settings: growth observed at 20 h; unit assumed
Protocol: as §1

[4] = tested on: Staphylococcus aureus (ATCC 25923); settings: growth observed at 20 h; unit assumed
Protocol: as §1

[5] = tested on: Staphylococcus aureus (methicillin resistant, ATCC 43300); settings: MRSA; growth observed at 20 h; unit assumed
Protocol: as §1

Row | Structure (SMILES) | MIC [1] [µg/mL] | MIC [2] [µg/mL] | MIC [3] [µg/mL] | MIC [4] [µg/mL] | MIC [5] [µg/mL]
1 | CN[C@@H](CC(C)C)C(=O)N[C@H]1C(=O)N[C@@H](CC(N)=O)C(=O)N[C@H]2CN[C@H]3C(=O)N[C@H](C(=O)N[C@@H](C(=O)O)c4cc(OC)cc(OC)c4-c4cc3ccc4OC)[C@H](O)c3ccc(c(Cl)c3)Oc3cc2cc(c3OC)Oc2ccc(cc2Cl)[C@H]1O (atropisomer, axis not shown) [Compound 43] | 8 (≈ 6.74 µM) | > 64 | > 64 | 2 (≈ 1.69 µM) | 2 (≈ 1.69 µM)
2 | CN[C@H](CC(C)C)C(=O)N[C@H]1C(=O)N[C@@H](CC(N)=O)C(=O)N[C@H]2C(=O)N[C@H]3C(=O)N[C@H](C(=O)N[C@H](C(=O)O)c4cc(O)cc(O)c4-c4cc3ccc4O)[C@H](O)c3ccc(c(Cl)c3)Oc3cc2cc(c3O)Oc2ccc(cc2Cl)[C@H]1O [vancomycin aglycon] | 32 (≈ 28 µM) | > 64 | > 64 | 1 (≈ 0.874 µM) | 1 (≈ 0.874 µM)
3 | CN[C@H](CC(C)C)C(=O)N[C@H]1C(=O)N[C@@H](CC(N)=O)C(=O)N[C@H]2C(=O)N[C@H]3C(=O)N[C@H](C(=O)N[C@H](C(=O)O)c4cc(O)cc(O)c4-c4cc3ccc4O)[C@H](O)c3ccc(c(Cl)c3)Oc3cc2cc(c3O[C@@H]2O[C@H](CO)[C@@H](O)[C@H](O)[C@H]2O[C@H]2C[C@](C)(N)[C@H](O)[C@H](C)O2)Oc2ccc(cc2Cl)[C@H]1O [vancomycin] | 16 (≈ 11 µM) | > 64 | > 64 | 0.5 (≈ 0.345 µM) | 0.5 (≈ 0.345 µM)
